System: FXa
Experiment: FXa association rate constant
Type: biochemical, human
Experimental: Determination of FXa association rate constants The association rate of ecotin with FXa was determined as follows. At reference time zero, ecotin (7 nM final concentration) was added to FXa (5 nM final concentration) and TNCT buffer in a total volume of 3.0 ml. Immediately thereafter, 150 μl aliquots were removed at intervals over a period of 10 min and added to microtiter wells containing 50 μl 5 mM Spectrozyme fXa. The absorbance of the wells was monitored at 405 nm. Initial rates were determined for each well using the initial linear portion of each data set. The concentration of free enzyme versus time was plotted and the curves fitted to equation 4; values for kon were determined by nonlinear regression analysis.
The rate of association of a reversible inhibitor with enzyme is given by equation 2: [formula] Since measurements were made during the initial phase of the reaction, where dissociation of the E·I complex is negligible, the second term of equation 2 can be ignored. Therefore the rate of association is given by equation 3: [formula] […] The association rate constant for ecotin with FXa was determined by measuring free enzyme as a function of time and fitting the data to equation (4) by nonlinear regression analysis. A value for kon =(1.35±0.08)×10^6 M^-1 s^-1 was calculated for ecotin with FXa (FIG. 4A); kon values for ecotin mutants are shown in Table I.

Question: Which “time for complete inhibition of FXa” value (ca. 500 nM ecotin, maximum FXa concentration in blood ca. 200 nM) does the source give for “Ecotin: E. coli periplasmic protein having the 142 amino acid residue sequence reported by McGrath et al.; recombinant, P1 Met84” here?
Answer: Its value is “approximately 7.4 sec”.

Question: And the “association rate constant (kon) with FXa” value (full power of ten printed)?
Answer: The value was 1.35e+06 M⁻¹ s⁻¹.
